The results in this text go back to ChEMBL document CHEMBL1201862, “PubChem BioAssay data set” (2004).

Molecules are shown by their SMILES.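 Growth conditions: 96-well plates. Treatment: test compound, 48 hours, 5 concentrations. Analysis: linear interpolation between bracketing concentrations; unreached endpoints set to highest concentration. GI50 is the concentration that inhibits growth by half.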 Activity calls are given as the source filed them. No stated cut-off is given here; in the data, active = GI50 up to about 1.1 µM and inactive = higher. A value given as a limit tells only on which side of the number the result lay.

Holding throughout (assay): inhibition of tumour cell growth, NCI panel, 48 h
In assay [1] the test system is 786-0.
The subject of assay [2] is EKVX.
Assay [3] deals with HCT-116.
Assay [4] concerns HL-60.
Assay [5] deals with HOP-62.
The test system of assay [6] is HOP-92.
For assay [7], the system named is HT-29.
For assay [8], the system named is IGROV-1.
The test system of assay [9] is K562.
Assay [10] deals with KM12.
The test system of assay [11] is M14.
The subject of assay [12] is NCI-H460.
The test system of assay [13] is OVCAR-4.
Assay [14] concerns SK-MEL-2.
Assay [15] relates to SN12C.
Assay [16] concerns TK-10.
The test system of assay [17] is U-251.
Assay [18] deals with SK-MEL-5.

In the case of `COc1cc2c(c(OC)c1OC)-c1ccc(SC)c(=O)cc1[C@@H](NC(=O)c1ccc(F)cc1)CC2`, the GI50 was 0.0488 µM (active) in assay [1]; 0.0461 µM (active) in assay [2]; 0.0416 µM (active) in assay [3]; < 0.01 µM (active) in assay [4]; 0.0621 µM (active) in assay [5]; 0.0281 µM (active) in [6]. Further, the GI50 in assay [7] was 0.0318 µM (active); in assay [8] it was 0.0594 µM (active); in assay [9] it was 0.0284 µM (active); in assay [10], 0.0217 µM (active); in assay [11], 0.0378 µM (active); in assay [12] it was 0.0344 µM (active). Further, the GI50 in assay [13] was 6.59 µM (inactive); in assay [14], 0.0407 µM (active); in assay [15] it was 0.0384 µM (active); in assay [16] it was 0.0515 µM (active); in assay [17], 0.0428 µM (active).

Consider `Cn1cc(C2(C)CC(C)(C)c3c2n(C)c2ccccc32)c2ccccc21` (stereo not given), for which the GI50 in [1] was > 100 µM (inactive); in assay [2], > 100 µM (inactive); in assay [5] it was > 100 µM (inactive); in [6] it was > 100 µM (inactive); in [7] it was 49.8 µM (inactive); in assay [8], > 100 µM (inactive). Besides, the GI50 is 83.8 µM (inactive) in assay [9]; 94 µM (inactive) in [10]; > 100 µM (inactive) in assay [11]; > 100 µM (inactive) in assay [12]; > 100 µM (inactive) in [14]; 69.3 µM (inactive) in assay [18]. Further, the GI50 in [15], in [16] and in assay [17] was > 100 µM (inactive) throughout.

Consider `O=C1CCCCC/C=C2/CC[C@H](Sc3ccccc3)[C@@H]12`, for which the GI50 in assay [1] was > 100 µM (inactive); in assay [2] it was 38.3 µM (inactive); in assay [3], 52.4 µM (inactive); in assay [4], 52.1 µM (inactive); in assay [5], 37.3 µM (inactive); in [7] it was > 100 µM (inactive). For the same compound, the GI50 in assay [9] was > 100 µM (inactive); in assay [10] it was 87.1 µM (inactive); in assay [11] it was > 100 µM (inactive); in assay [12], 94.4 µM (inactive); in assay [13], > 100 µM (inactive); in assay [14] it was 71.9 µM (inactive). Further, the GI50 in assay [18] is > 100 µM (inactive); in [15] it was > 100 µM (inactive); in [16], 49.9 µM (inactive); in assay [17], 80.7 µM (inactive).

For the compound `C=C1C(=O)OC2C1CC[C@H](C)C1(O)C(O)CC(=O)[C@@]21C` (stereo not given in full), the GI50 in assay [1] was 24.2 µM (inactive); in assay [2], 19.5 µM (inactive); in assay [3], 15 µM (inactive); in [4] it was 17 µM (inactive); in assay [6], 27.7 µM (inactive); in assay [7], 20.4 µM (inactive). Further, the GI50 in assay [8] was 28.8 µM (inactive); in [9], 14.3 µM (inactive); in assay [10], 17.3 µM (inactive); in [12] it was 36.5 µM (inactive); in [14], 27.2 µM (inactive); in [18] it was 16.7 µM (inactive). In addition, the GI50 in assay [15] is 22 µM (inactive); in assay [16], > 10 µM (inactive); in assay [17], 49.8 µM (inactive).

With `CN/N=C(/CC(=O)c1sc(-n2nc(-c3ccccc3)cc2-c2ccccc2)nc1C)C(=O)Nc1ccc(Cl)c(Cl)c1`, the GI50 is 39.3 µM (inactive) in [1]; 0.787 µM (active) in assay [2]; 34.5 µM (inactive) in [3]; 19.4 µM (inactive) in assay [5]; 14.1 µM (inactive) in [6]; 25.9 µM (inactive) in assay [7]. Moreover, the GI50 is 61 µM (inactive) in [8]; 20.4 µM (inactive) in assay [9]; 41.7 µM (inactive) in assay [10]; 57.3 µM (inactive) in assay [12]; 52.6 µM (inactive) in assay [13]; > 100 µM (inactive) in assay [14]. In addition, the GI50 was 18 µM (inactive) in [18], 66.5 µM (inactive) in assay [15] and 24.6 µM (inactive) in assay [17].

Turning to `O=C(CN1CCCCC1)N1CCc2c([nH]c3ccccc23)C1c1cccnc1` (stereo not given), the GI50 was > 100 µM (inactive) in assay [1]; > 100 µM (inactive) in assay [2]; > 100 µM (inactive) in assay [3]; > 100 µM (inactive) in [4]; > 100 µM (inactive) in assay [5]; 34.6 µM (inactive) in assay [6]. The GI50 in assay [7], in [8], in assay [9], in assay [10], in [11] and in assay [12] was > 100 µM (inactive) in each case. In addition, the GI50 in assay [13], in [18], in assay [15], in assay [16] and in assay [17] was > 100 µM (inactive) each time.

For `CNC(=O)OCc1nc(SC(C)C)n(C)c1COC(=O)NC`, the GI50 is > 100 µM (inactive) in [1]; > 100 µM (inactive) in assay [2]; > 100 µM (inactive) in assay [3]; 57 µM (inactive) in [4]; > 100 µM (inactive) in assay [5]; > 100 µM (inactive) in assay [6]. Further, the GI50 in [7] is > 100 µM (inactive); in [8] it was > 100 µM (inactive); in assay [9], > 69.8 µM (inactive); in assay [10], > 100 µM (inactive); in [11], > 100 µM (inactive); in assay [12] it was 72.8 µM (inactive). Moreover, the GI50 in assay [13], in [14], in assay [18], in assay [15] and in assay [17] was > 100 µM (inactive) in each case.

With `Cn1nc(-c2ccccc2)c(C(=O)/C=C/c2ccc(Cl)cc2)c(N2CCCCC2)c1=O`, the GI50 in [1] is 1.69 µM (inactive); in assay [2], 3.85 µM (inactive); in assay [3] it was 1.81 µM (inactive); in assay [4] it was 1.82 µM (inactive); in assay [5], 2.37 µM (inactive); in [6], 1.91 µM (inactive). In addition, the GI50 in assay [7] is 1.45 µM (inactive); in [8], 2.15 µM (inactive); in assay [9] it was 2.04 µM (inactive); in [11], 3.15 µM (inactive); in assay [12], 2.52 µM (inactive); in [18] it was 1.95 µM (inactive). Besides, the GI50 in assay [15] was 3.53 µM (inactive); in assay [16], 3.72 µM (inactive); in [17] it was 1.86 µM (inactive).

On to `c1ccc(OCCSCCCCCCCCCCSCCOc2ccccc2)cc1`, for which the GI50 in assay [1] is 50.4 µM (inactive); in assay [2] it was 16.9 µM (inactive); in assay [4], > 100 µM (inactive); in assay [5], 24.7 µM (inactive); in assay [8] it was > 100 µM (inactive); in assay [9], > 100 µM (inactive). In addition, the GI50 in assay [10] was > 100 µM (inactive); in assay [11] it was > 100 µM (inactive); in assay [12], 37.8 µM (inactive); in assay [14], > 100 µM (inactive); in assay [18] it was 28.9 µM (inactive); in assay [15] it was > 100 µM (inactive). Besides, the figures for the GI50 in assay [16] and in [17] were 16.9 µM (inactive) and 74.3 µM (inactive), respectively.

In the case of `Cc1ccc(/C=C2\CCCC\C2=N\O)cc1`, the GI50 in assay [1] is 48.5 µM (inactive); in assay [2], 80.2 µM (inactive); in [3], 45.9 µM (inactive); in assay [4], 12.9 µM (inactive); in assay [5] it was > 100 µM (inactive); in assay [7], 51.8 µM (inactive). In addition, the GI50 is 74.5 µM (inactive) in assay [8]; 41 µM (inactive) in assay [9]; > 100 µM (inactive) in assay [11]; 54 µM (inactive) in assay [12]; 38.8 µM (inactive) in [13]; 35.1 µM (inactive) in [18]. In addition, the GI50 in assay [15] is 47 µM (inactive); in [16], > 100 µM (inactive); in [17], 60.1 µM (inactive).

On to `Cc1c(C(=O)/C=C/c2ccccc2Cl)[n+]([O-])c2ccccc2[n+]1[O-]`, for which the GI50 was 12.6 µM (inactive) in assay [1]; 17.3 µM (inactive) in assay [2]; 10.6 µM (inactive) in assay [3]; 12.3 µM (inactive) in assay [4]; 19.9 µM (inactive) in assay [5]; 15.3 µM (inactive) in assay [6]. The GI50 was 17.3 µM (inactive) in assay [7]; 15 µM (inactive) in [8]; 5.53 µM (inactive) in assay [9]; 14.3 µM (inactive) in [10]; 15.2 µM (inactive) in assay [11]; 10.3 µM (inactive) in assay [12]. For the same compound, the GI50 in assay [13] is 12.1 µM (inactive); in [14], 13.6 µM (inactive); in assay [18] it was 18 µM (inactive); in assay [15], 15.1 µM (inactive); in assay [17], 14.3 µM (inactive).

In the case of `[N-]=[N+]=NC(CI)c1cn([C@H]2C[C@H](O)[C@@H](CO)O2)c(=O)[nH]c1=O` (stereo not given in full), the GI50 in [1] is 63.2 µM (inactive); in assay [2], > 100 µM (inactive); in assay [3], > 100 µM (inactive); in [4], 54.1 µM (inactive); in [5] it was > 100 µM (inactive); in assay [6], > 100 µM (inactive). In addition, the GI50 is > 100 µM (inactive) in assay [7]; > 100 µM (inactive) in assay [8]; 83.9 µM (inactive) in [9]; > 100 µM (inactive) in assay [10]; > 100 µM (inactive) in assay [11]; 29.8 µM (inactive) in assay [12]. Also, the GI50 in assay [14], in [18], in assay [15], in [16] and in assay [17] was > 100 µM (inactive) throughout.
